The record followed here is patent US6025358A, “Double prodrugs of potent GP IIb/IIIa antagonists” (G. D. Searle & Co., priority 1999, dated 2000).

The subject of the assay is platelet aggregation. Kind of assay: Ex vivo screening of oral GP IIb/IIIa inhibitors: inhibition of collagen-induced platelet aggregation in PRP after oral dosing in beagles. As to conditions: beagle dogs, 5 mpk, collagen agonist; for % inhibition of platelet aggregation @ 10 hours: n = 2, 10 hours post-dosing; for inhibition in vivo at 5 mg/kg: Canis lupus familiaris, Platelet, n = 2, 32 hours post-dosing, read-out: Percent inhibition of platelet aggregation at 32 hour post-dosing. How it is done: Beagles (8-13 kg, various sources) of either sex are dosed orally with compound in a gelatin capsule. Blood samples are drawn from the cephalic vein using a 23 ga infusion butterfly. Samples for platelet aggregation and drug concentration are taken prior to dosing and 0.5, 1, 2, 3, 5, 7 and 10 hours after dosing and periodically on subsequent days until inhibition of platelet aggregation is less than 30%. Animals are fasted, with ad lib access to water, overnight prior to dosing. For measurement of plasma concentration blood is drawn into a 3 ml tube containing 45 USP units of Na Heparin. Blood is centrifuged at 1700×g for 10 minutes, plasma is aspirated and frozen at -20° C. until analyzed by HPLC. For measurement of platelet aggregation, blood is drawn into 2 2.0 ml tubes containing 0.2 ml of 3.8% Na Citrate. Blood is centrifuged at 250×g for 6 minutes and the platelet rich plasma (PRP) is aspirated. The remaining blood is centrifuged at 1700×g for 10 minutes and platelet poor plasma (PPP) is aspirated. Platelet aggregation is performed in a Bio-Data PAP-4 aggregometer (Bio-Data Corp., Havertown, Pa.) using collagen (100 μg/ml final concentration; Helena Laboratories, Beaumont, Tex.) as the agonist. Briefly, baseline (100% aggregation) is set using PPP; PRP is incubated at 37° C. for one minute without stirring and one minute with stirring, agonist is added and aggregation is allowed to develop for 4 minutes. Percent aggregation post-dosing is compared to percent aggregation pre-dosing to determine percent inhibition.
Percent inhibition of platelet aggregation at 32 hour post-dosing in
beagle dogs (5 mpk, n = 2)

Counter-ions that a name gives are not always drawn.

For the compound `CN(C)CCN(C)C(=O)ONC(=N)c1ccc(N2CC[C@H](NC(=O)NCCC(=O)O)C2=O)cc1.O.O=C(O)C(F)(F)F.O=C(O)C(F)(F)F` [6(a), N-[[[(3S)-1-[4-(1-imino-5,8-dimethyl-4-oxo-3-oxa-2,5,8-triazanon-1-yl)phenyl]-2-oxo-3-pyrrolidinyl]amino]carbonyl]-β-alanine bis(trifluoroacetate) monohydrate], the “% inhibition of platelet aggregation @ 10 hours” value came out at 61%.

With `CCOC(=O)CCNC(=O)N[C@H]1CCN(c2ccc(C(N)=NOC(C)=O)cc2)C1=O` [Example 8, N-[[[(3S)-1-[4-[[(acetyloxy)amino]iminomethyl]phenyl]-2-oxo-3-pyrrolidinyl]amino]carbonyl]-β-alanine ethyl ester], the inhibition in vivo at 5 mg/kg is 57%.

For the compound `CC(C)COC(=O)CCNC(=O)N[C@H]1CCN(c2ccc(C(=N)NOC(=O)NCCN(C)C)cc2)C1=O` [3(r), N-[[[(3S)-1-[4-(1-imino-8-methyl-4-oxo-3-oxa-2,5,8-triazanon-1-yl)phenyl]-2-oxo-3-pyrrolidinyl]amino]carbonyl]-β-alanine 2-methylpropyl ester monoacetate], the inhibition in vivo at 5 mg/kg worked out at 46%.

With `COC(=O)CCNC(=O)N[C@H]1CCN(c2ccc(C(=N)NOC(=O)NCCN(C)C)cc2)C1=O` [3(b), N-[[[(3S)-1-[4-(1-imino-8-methyl-4-oxo-3-oxa-2,5,8-triazanon-1-yl)phenyl]-2-oxo-3-pyrrolidinyl]amino]carbonyl]-β-alanine methyl ester], the inhibition in vivo at 5 mg/kg stood at 54%.

Consider `COC(=O)CCNC(=O)N[C@H]1CCN(c2ccc(C(N)=NOC(N)=O)cc2)C1=O` [Example 5, N-[[[(3S)-1-[4-[[[(aminocarbonyl)oxy]amino]iminomethyl]-phenyl]-2-oxo-3-pyrrolidinyl]amino]carbonyl]-β-alanine methyl ester], for which the inhibition in vivo at 5 mg/kg came out at 89%.

For the compound `NC(=O)ON=C(N)c1ccc(N2CC[C@H](NC(=O)NCCC(=O)O)C2=O)cc1` [6(d), N-[[[(3S)-1-[4-[[[(aminocarbonyl)oxy]amino]iminomethyl]phenyl]-2-oxo-3-pyrrolidinyl]amino]carbonyl]-β-alanine], the “% inhibition of platelet aggregation @ 10 hours” value is listed as 15%.

Take `CCCOC(=O)CCNC(=O)N[C@H]1CCN(c2ccc(C(=N)NOC(=O)N(C)CCN(C)C)cc2)C1=O` [3(m), N-[[[(3S)-1-[4-(1-imino-5,8-dimethyl-4-oxo-3-oxa-2,5,8-triazanon-1-yl)phenyl]-2-oxo-3-pyrrolidinyl]amino]carbonyl]-β-alanine propyl ester dihydrochloride]: the inhibition in vivo at 5 mg/kg amounted to 80%.

For `CCOC(=O)CCNC(=O)N[C@H]1CCN(c2ccc(C(N)=NOC(=O)N(C)C)cc2)C1=O` [4(a), N-[[[(3S)-1-[4-[[[[(dimethylamino)carbonyl]oxy]amino]iminomethyl]phenyl]-2-oxo-3-pyrrolidinyl]amino]carbonyl]-β-alanine ethyl ester], the inhibition in vivo at 5 mg/kg is 63%.

Consider `CCCOC(=O)CCNC(=O)N[C@H]1CCN(c2ccc(C(N)=NOC(=O)N(C)C)cc2)C1=O` [4(c), N-[[[(3S)-1-[4-[[[[(dimethylamino)carbonyl]oxy]amino]iminomethyl]phenyl]-2-oxo-3-pyrrolidinyl]amino]carbonyl]-β-alanine propyl ester], for which the inhibition in vivo at 5 mg/kg was found to be 64%.

As to `CCOC(=O)CCNC(=O)N[C@H]1CCN(c2ccc(C(=N)NOC(=O)NCCN(C)C)cc2)C1=O` [3(f), N-[[[(3S)-1-[4-(1-imino-8-methyl-4-oxo-3-oxa-2,5,8-triazanon-1-yl)phenyl]-2-oxo-3-pyrrolidinyl]amino]carbonyl]-β-alanine ethyl ester monoacetate], the inhibition in vivo at 5 mg/kg is 35%.

Turning to `CC(C)COC(=O)CCNC(=O)N[C@H]1CCN(c2ccc(C(N)=NO)cc2)C1=O` [1(d), N-[[[(3S)-1-[4-[(hydroxyamino)iminomethyl]phenyl]-2-oxo-3-pyrrolidinyl]amino]carbonyl]-β-alanine 2-methylpropyl ester monohydrochloride], the inhibition in vivo at 5 mg/kg was determined as 45%.

With `CC(C)(C)COC(=O)CCNC(=O)N[C@H]1CCN(c2ccc(C(N)=NO)cc2)C1=O` [1(f), N-[[[(3S)-1-[4-[(hydroxyamino)iminomethyl]phenyl]-2-oxo-3-pyrrolidinyl]amino]carbonyl]-β-alanine 2,2-dimethylpropyl ester], the inhibition in vivo at 5 mg/kg came to 87%.

Regarding `CCCCCOC(=O)CCNC(=O)N[C@H]1CCN(c2ccc(C(N)=NO)cc2)C1=O` [1(h), N-[[[(3S)-1-[4-[(hydroxyamino)iminomethyl]phenyl]-2-oxo-3-pyrrolidinyl]amino]carbonyl]-β-alanine pentyl ester monohydrochloride], the inhibition in vivo at 5 mg/kg is 39%.

As to `CCOC(=O)CCNC(=O)N[C@H]1CCN(c2ccc(C(=N)NOC(=O)N(C)CCN(C)C)cc2)C1=O` [3(e), N-[[[(3S)-1-[4-(1-imino-5,8-dimethyl-4-oxo-3-oxa-2,5,8-triazanon-1-yl)phenyl]-2-oxo-3-pyrrolidinyl]amino]carbonyl]-β-alanine ethyl ester dihydrochloride], the inhibition in vivo at 5 mg/kg worked out at 54%.

Regarding `CC(C)OC(=O)CCNC(=O)N[C@H]1CCN(c2ccc(C(N)=NOC(N)=O)cc2)C1=O` [5(b), N-[[[(3S)-1-[4-[[[(aminocarbonyl)oxy]amino]iminomethyl]phenyl]-2-oxo-3-pyrrolidinyl]amino]carbonyl]-β-alanine 1-methylethyl ester], the inhibition in vivo at 5 mg/kg turned out to be 64%.
